Patent publication US7208496B2, “Substituted heterocyclic compounds” (CV Therapeutics, Inc., priority 2003, dated 2007)

Test system: Palmitoyl CoA oxidation in rat heart mitochondria
Experiment: Palmitoyl CoA oxidation assay (mitochondrial assay, Example 16)
Format: biochemical
Details: 16 microM 1-C14 palmitoyl CoA, 15 min at 30° C., read-out: IC value, Palmitoyl CoA oxidation
Protocol: Rat heart mitochondria are isolated by the method of Nedergard and Cannon (Methods in Enzymol. 55, 3, 1979).
Palmitoyl CoA oxidation—The Palmityl CoA oxidation is carried out in a total volume of 100 micro liters containing the following agents: 110 mM KCl, 33 mM Tris buffer at pH 8, 2 mM KPi, 2 mM MgCl2, 0.1 mM EDTA, 14.7 microM defatted BSA, 0.5 mM malic acid, 13 mM carnitine, 1 mM ADP, 52 micrograms of mitochondrial protein, and 16 microM 1-C14 palmitoyl CoA (Sp. Activity 60 mCi/mmole; 20 microCi/ml, using 5 microliters per assay). The compounds of this invention are added in a DMSO solution at the following concentrations: 100 micro molar, 30 micro molar, and 3 micro molar. In each assay, a DMSO control is used. After 15 min at 30° C., the enzymatic reaction is centrifuged (20,000 g for 1 min), and 70 microliters of the supernatant is added to an activated reverse phase silicic acid column (approximately 0.5 ml of silicic acid). The column is eluted with 2 ml of water, and 0.5 ml of the eluent is used for scintillation counting to determine the amount of C^14 trapped as C^14 bicarbonate ion.

{(3S)-4-[(2R)-2-hydroxy-3-(2-methylbenzothiazol-5-yloxy)propyl]-3-methylpiperazinyl}-N-(9-ethylcarbazol-3-yl)carboxamide
IC50: 2600 nM
